# Measured values reported in patent publication US20060211755A1, “3-oxo-1, 3-dihydro-indazole-2-carboxylic acid amide derivatives as phospholipase inhibitors” (Eli Lilly and Company Patent Division, priority 2003, published 2006).
row,melting point,Structure (SMILES)
1,153 to 155 °C,"CCCNC(=O)n1[nH]c2ccccc2c1=O [Example 1, 3-Oxo-1,3-dihydro-indazole-2-carboxylic acid propylamide]"
2,119 to 120 °C,"CCCCCNC(=O)n1[nH]c2ccccc2c1=O [Example 2, 3-Oxo-1,3-dihydro-indazole-2-carboxylic acid pentylamide]"
3,134 to 136 °C,"CC(C)CCCCNC(=O)n1[nH]c2ccccc2c1=O [Example 5, 3-Oxo-1,3-dihydro-indazole-2-carboxylic acid (5-methyl-hexyl)-amide]"
4,166 to 168 °C,"Cc1ccccc1CNC(=O)n1[nH]c2ccccc2c1=O [Example 16, 3-Oxo-1,3-dihydro-indazole-2-carboxylic acid 2-methyl-benzylamide]"
5,179 to 180 °C,"Cc1cccc(CNC(=O)n2[nH]c3ccccc3c2=O)c1 [Example 17, 3-Oxo-1,3-dihydro-indazole-2-carboxylic acid 3-methyl-benzylamide]"
6,186 to 188 °C,"COc1cccc(CNC(=O)n2[nH]c3ccccc3c2=O)c1 [Example 24, 3-Oxo-1,3-dihydro-indazole-2-carboxylic acid 3-methoxy-benzylamide]"
7,235 °C (dec.),"Cc1ccc2c(=O)n(C(=O)NCc3ccccc3C)[nH]c2c1 [Example 45, 6-Methyl-3-oxo-1,3-dihydro-indazole-2-carboxylic acid 2-methyl-benzylamide]"
8,> 250 °C,"Cc1ccccc1CNC(=O)n1[nH]c2cccc(C(=O)O)c2c1=O [Example 52, 2-(2-Methyl-benzylcarbamoyl)-3-oxo-2,3-dihydro-1H-indazole-4-carboxylic acid]"
9,> 250 °C,"Cc1ccccc1CNC(=O)n1[nH]c2ccc(C(=O)O)cc2c1=O [Example 53, 2-(2-Methyl-benzylcarbamoyl)-3-oxo-2,3-dihydro-1H-indazole-5-carboxylic acid]"
10,> 250 °C,"Cc1ccccc1CNC(=O)n1[nH]c2c(C(=O)O)cccc2c1=O [Example 55, 2-(2-Methyl-benzylcarbamoyl)-3-oxo-2,3-dihydro-1H-indazole-7-carboxylic acid]"
11,230 °C (dec.),"Cc1ccc(F)cc1CNC(=O)n1[nH]c2cccc(C(=O)O)c2c1=O [Example 57, 2-(5-Fluoro-2-methyl-benzylcarbamoyl)-3-oxo-2,3-dihydro-1H-indazole-4-carboxylic acid]"
12,> 250 °C,"Cc1ccc(F)cc1CNC(=O)n1[nH]c2c(C(=O)O)cccc2c1=O [Example 58, 2-(5-Fluoro-2-methyl-benzylcarbamoyl)-3-oxo-2,3-dihydro-1H-indazole-7-carboxylic acid]"
13,> 250 °C,"Cc1cccc(C)c1CNC(=O)n1[nH]c2cccc(C(=O)O)c2c1=O [Example 59, 2-(2,6-Dimethyl-benzylcarbamoyl)-3-oxo-2,3-dihydro-1H-indazole-4-carboxylic acid]"
14,> 250 °C,"Cc1cccc(C)c1CNC(=O)n1[nH]c2c(C(=O)O)cccc2c1=O [Example 60, 2-(2,6-Dimethyl-benzylcarbamoyl)-3-oxo-2,3-dihydro-1H-indazole-7-carboxylic acid]"
15,> 250 °C,"CCc1cccc(C)c1CNC(=O)n1[nH]c2cccc(C(=O)O)c2c1=O [Example 61, 2-(2-Ethyl-6-methyl-benzylcarbamoyl)-3-oxo-2,3-dihydro-1H-indazole-4-carboxylic acid]"
16,> 250 °C,"CCc1cccc(C)c1CNC(=O)n1[nH]c2ccc(C(=O)O)cc2c1=O [Example 62, 2-(2-Ethyl-6-methyl-benzylcarbamoyl)-3-oxo-2,3-dihydro-1H-indazole-5-carboxylic acid]"
17,> 250 °C,"CCc1cccc(C)c1CNC(=O)n1[nH]c2cc(C(=O)O)ccc2c1=O [Example 63, 2-(2-Ethyl-6-methyl-benzylcarbamoyl)-3-oxo-2,3-dihydro-1H-indazole-6-carboxylic acid]"
